{"source": "paper PMC9894685", "about": "“Abscisic acid agonists suitable for optimizing plant water use” (Frontiers in Plant Science, 2023)", "key": {"RCAR11-ABI2 [1]": {"test_system": "RCAR11-ABI2", "experiment": "Yeast ABA signal pathway LUC reporter, RCAR11-ABI2", "format": "cell-based, Arabidopsis thaliana", "description": "(§1) The yeast cultivation and the life luciferase assay were performed as described ([Ruschhaupt et al., 2019]). Briefly, the reporter yeast expressing an ABA-dependent luciferase gene (LUC) was transformed with different combinations of ABA signaling components as indicated. Golden gate cloning ([Binder et al., 2014]) was used to construct pYEAST_LII_5‐6_CEN_URA vector with TDH3 promoter and TDH1 terminator (tTDH1), pYEAST_LII_1‐2_CEN_LEU vector with GK1 promoter and tTDH1, and pYEAST_LII_3‐4_CEN_TRP with the GAL1 promoter (pGAL1) and tTDH1 to express RCARs, PP2Cs, and OST1 (SnRK2.6), respectively ([Ruschhaupt et al., 2019]). The expression of ABF2 in yeast relies on a modified pGREG503 vector, in which pGAL1 ([Jansen et al., 2005]) was replaced by the ADH1 promoter.\n(§2) Colonies of freshly transformed cells were inoculated in 0.5 mL supplemented synthetic dextrose (SD) medium and incubated at 30°C in a gyratory shaker (Thermoshake-THO500, Gerhardt, Königswinter, Germany) at 200 rpm for 16-18 h. After overnight growth, the cells were harvested and washed in SD medium followed by inoculation in SD medium containing 2% galactose for induction of SnRK2 kinases under the control of the GAL1 promoter and supplementation with ligands at indicated concentrations, to an OD600 of 0.2 in flat-bottom 96-well plates (CytoOne, Starlab, Hamburg, Germany). Yeast cultures were incubated at 30°C and 200 rpm for 16-18 h before determination of LUC activity and cell density. Light emission of yeasts was detected in a HIDEX plate luminometer (HIDEX, Turku, Finland) after injection of 100 µL freshly prepared luciferin substrate (1 mM D-luciferin, Promega) provided in 100 mM citric acid, pH 3 ([Leskinen et al., 2003]) for 5 s and was corrected for background. The LUC activity was normalized to the cell density (OD600) measured in 96-well flat plates (Sarstedt, Nümbrecht, Germany). LUC activity is given as the ratio of light emission to OD600 in counts per second."}, "RCAR1/PYL9-ABI2": {"test_system": "RCAR1/PYL9-ABI2", "experiment": "Yeast ABA signal pathway LUC reporter, RCAR1-ABI2", "format": "cell-based, Arabidopsis thaliana", "description": "as §1, with “The expression of ABF2 in yeast relies on a modified pGREG503 vector, in which pGAL1 ([Jansen et al., 2005]) was replaced by the ADH1 promoter.” left out\nColonies of freshly transformed cells were inoculated in 0.5 mL supplemented synthetic dextrose (SD) medium and incubated at 30°C in a gyratory shaker (Thermoshake-THO500, Gerhardt, Königswinter, Germany) at 200 rpm for 16-18 h. […] Light emission of yeasts was detected in a HIDEX plate luminometer (HIDEX, Turku, Finland) after injection of 100 µL freshly prepared luciferin substrate (1 mM D-luciferin, Promega) provided in 100 mM citric acid, pH 3 ([Leskinen et al., 2003]) for 5 s and was corrected for background. The LUC activity was normalized to the cell density (OD600) measured in 96-well flat plates (Sarstedt, Nümbrecht, Germany). […]"}, "RCAR8/PYL5-ABI2": {"test_system": "T1, RCAR8/PYL5-ABI2", "T1 construct": "expressed in transfected cells; host or cells: yeast (LUC reporter strain)", "experiment": "Yeast ABA signal pathway LUC reporter, RCAR8-ABI2", "format": "cell-based, Arabidopsis thaliana", "description": "as §1, §2"}, "RCAR11-ABI2 [2]": {"test_system": "T2, RCAR11-ABI2", "T2 construct": "6xHis (N); made in house; host or cells: Escherichia coli BL21", "experiment": "In vitro phosphatase assay, ABI2 with RCAR11", "format": "biochemical, Arabidopsis thaliana", "conditions": "100 nM ABI2, 200 nM RCAR11", "description": "(§3) Expression, purification, and analysis of RCAR and PP2C proteins were performed essentially as described ([Ruschhaupt et al., 2019]). Briefly, the ABA receptors RCAR1, RACR8, and RCAR11 were expressed with an aminoterminal histidine tag using the pSEVA431_LII_6xHIS::RCAR1/RCAR8/RCAR11. ABA coreceptors were expressed as histidine-tagged fusions with the maltose-binding protein using the pSEVA431_LII_6xHIS::MBP::ABI2/HAB1. All constructs were transformed and expressed in Escherichia coli strain BL21 and purified to homogeneity according to supplier’s instruction (GE Healthcare, Chicago, USA). The receptor assay was performed with 100 nM PP2C and a two-fold molar excess of RCAR. Values are means ± SD of three replicates. […] The maximum inhibition was set to 100% in the figures. The phosphatase activity was measured using 4-methylumbelliferyl-phosphate as a substrate ([Meinhard and Grill, 2001]). The increase in fluorescence was recorded over 25 min with excitation and emission wavelengths at 360 and 460 nm, respectively, using a Synergy 2 plate reader (Bio-Tec, Winooski, USA)."}, "RCAR8-ABI2": {"biological_target": "RCAR8-ABI2", "experiment": "In vitro phosphatase assay, ABI2 with RCAR8", "format": "biochemical, Arabidopsis thaliana", "conditions": "100 nM ABI2, 200 nM RCAR8", "description": "as §3"}, "[3]": {"test_system": "Arabidopsis aba2-1 protoplasts", "experiment": "Transient ABA response in Arabidopsis protoplasts (pRD29B::LUC, RCAR11 and ABI2 effectors)", "format": "cell-based, Arabidopsis thaliana", "conditions": "aba2-1 protoplasts, 18 h ligand exposure", "description": "Preparation of Arabidopsis protoplasts, transfection of the effector DNA, and analysis of LUC activity were performed as described ([Tischer et al., 2017]). In essence, 10^5 mesophyll protoplasts from leaves of the ABA deficient mutant aba2-1 ([Schwartz et al., 1997]) were transfected with 4 µg DNA of the pRD29B::LUC construct as an ABA-responsive reporter and 3 µg of p35S::GUS (β-glucuronidase reporter gene) expression cassette as an internal control for normalization. In addition, 3 µg p35S::RCAR11 or the empty vector with the same expression cassette were co-expressed with 0.1 µg p35S::ABI2 effector constructs ([Tischer et al., 2017]), and the ligand-dependent induction of ABA-responsive reporter expression were assessed after incubation at 22°C. The expression of LUC and GUS was determined 18 h after transfection and ligand administration."}, "Arabidopsis plants": {"test_system": "Arabidopsis plants", "experiment": "Foliar administration and thermal imaging of leaf temperature (transpiration), Arabidopsis", "format": "in vivo, Arabidopsis thaliana"}}, "data": [{"smiles": "CCC(=C/C(=O)O)/C=C/C(O)(C(C)C)C1(C#N)CC1", "note": "(centres unmarked) [CCP2]", "values": [{"measurement": "ABA-agonistic activity in yeast LUC reporter", "setting": "RCAR11-ABI2 [1]; 30 µM, not esterase-treated", "value": "revealed an ABA-agonistic activity"}, {"measurement": "Activation of the ABA response compared to ABA", "setting": "RCAR11-ABI2 [1]; dose-dependent, 0.1-30 µM", "value": "comparable activity to ABA"}, {"measurement": "Higher exogenous concentration required for reporter expression comparable to 1 µM ABA", "setting": "RCAR1/PYL9-ABI2", "value": "> 30", "unit": "x"}, {"measurement": "Reporter induction relative to ABA", "setting": "RCAR8/PYL5-ABI2; 1 µM exogenous ligand", "value": "no significant reporter regulation"}, {"measurement": "Higher level required for induction value comparable to 1 µM ABA", "setting": "RCAR8/PYL5-ABI2; yeast, RCAR8-ABI2", "value": "> 30", "unit": "x"}, {"measurement": "Inhibition of ABI2 compared to ABA", "setting": "RCAR11-ABI2 [2]", "value": "comparable to ABA"}, {"measurement": "IC50 relative to ABA (fold higher)", "setting": "RCAR8-ABI2", "value": "~30", "unit": "fold"}, {"measurement": "Induction of ABA signaling compared to ABA", "setting": "[3]", "value": "ABA-like activity"}, {"measurement": "Efficiency in minimizing transpiration compared to ABA", "setting": "Arabidopsis plants; foliar application", "value": "by an order of magnitude more efficient than ABA"}, {"measurement": "ABA concentration achieving a temperature increase similar to 10 µM of the CCP", "setting": "Arabidopsis plants; one day after application", "value": "about 100 µM"}, {"measurement": "Activity and persistence of minimized transpiration compared to ABA", "setting": "Arabidopsis plants; single application 100 µM, recorded for 19 days", "value": "more active and persistent than ABA"}]}]}
